Assays:
Assay in all cases: Test of herbicidal activities (greenhouse pot method)
Assay type in all cases: in vivo
Conditions in all cases: single dose 300 g ai./h, treated before/after germination, 15 days later, greenhouse pot
Amaranthus retroflexus = test system: Amaranthus retroflexus
Procedure: (§1) Garden soil was collected from regions where no pesticide is used and mixed uniformly with mountain soil and organic humus soil at a volume ratio of 1:1:1.
(§2) Multiple flowerpots each having a diameter of 9.5 cm and a depth of 8 cm were filled with the soil mixture to 3/4 volume. After water was added to the soil and the soil was completely wet, seeds of three grass weeds and three broadleaf weeds were inserted into the flowerpots (10-15 seeds for each weed). After seeding, the seeds were covered with fine oil mixed with sand and having a thickness of 1-3 cm. After the soil absorbed enough water and became saturated, excess water at the bottom of the flowerpot was drained, and the seeds were placed in a greenhouse for growth.
(§3) The weeds were watered every day so as to keep relative humidity of the soil at approximately 80%, growing temperature of 15-30° C., and air humidity above 50%. As the grass weeds grew to a 2-leaf stage and the broadleaf weeds was in a leaf period, spraying operation […] was performed on the stems and leafs. Planting before germination was performed before spraying. Soil processing was performed before the seeds of the weeds emerged.
(§4) Six target weeds comprising three grass weeds: Echinochloa crusgalli, Digiatria sanguinalis, Setaria viridis, along with three broadleaf weeds: Brassica juncea, Amaranthus retroflexus, Chenopodium album were treated before/after germination using a so-called “greenhouse pot” method with a single dose. A treating dose was 300 g ai./h. The process was repeated three times, and a blank control was used.
(§5) A 3WPSHZ-500 type automatic spraying tower with a spraying area of 0.132 m^2, a spray volume of 10 mL, working pressure of 0.2 MPa, and a liquid volume of 40% of maximum was used. After treatment, the weeds were placed in a greenhouse at a temperature of 15-30° C. Reaction symptoms of the weeds were regularly observed, and 15 days later, five reaction levels were determined according to the following inhibition intervals: 90≦A≦100%; 80≦B<90%, 60≦C<80%; 50≦D<60%, E<50%.

Digiatria sanguinalis = test system: Digiatria sanguinalis
Procedure: as §1, §2, §3, §4, §5

Chenopodium album = test system: Chenopodium album
Procedure: as §1, §2, §3, §4, §5

Echinochloa crusgalli = test system: Echinochloa crusgalli
Procedure: as §1, §2, §3, §4, §5

Setaria viridis = test system: Setaria viridis
Procedure: as §1, §2, §3, §4, §5

Brassica juncea = test system: Brassica juncea
Procedure: as §1, §2, §3, §4, §5

Structure (SMILES) | Herbicidal activity Amaranthus retroflexus (inhibition level) (Amaranthus retroflexus) | Herbicidal activity Digiatria sanguinalis (inhibition level) (Digiatria sanguinalis) | Herbicidal activity Chenopodium album (inhibition level) (Chenopodium album) | Herbicidal activity Echinochloa crusgalli (inhibition level) (Echinochloa crusgalli) | Herbicidal activity Setaria viridis (inhibition level) (Setaria viridis) | Herbicidal activity Brassica juncea (inhibition level) (Brassica juncea)
CCCCCCS(=O)(=O)c1nc2cc(-n3nc(C)n(C(F)F)c3=O)c(Cl)cc2s1 [Compound 57] | A (90 ≦ A ≦ 100%) | A (90 ≦ A ≦ 100%) | C (60 ≦ C < 80%) | D (50 ≦ D < 60%) | D (50 ≦ D < 60%) | B (80 ≦ B < 90%)
C=CCS(=O)(=O)c1nc2cc(-n3nc(C)n(C(F)F)c3=O)c(F)cc2s1 [Compound 66] | B (80 ≦ B < 90%) | B (80 ≦ B < 90%) | B (80 ≦ B < 90%) | A (90 ≦ A ≦ 100%) | A (90 ≦ A ≦ 100%) | B (80 ≦ B < 90%)
CCOC(=O)CSc1nc2cc(-n3nc(C)n(C(F)F)c3=O)c(Br)cc2s1 [Compound 82] | A (90 ≦ A ≦ 100%) | A (90 ≦ A ≦ 100%) | C (60 ≦ C < 80%) | A (90 ≦ A ≦ 100%) | A (90 ≦ A ≦ 100%) | B (80 ≦ B < 90%)
CCOC(=O)C(C)S(=O)(=O)c1nc2cc(-n3nc(C)n(C(F)F)c3=O)c(F)cc2s1 (stereo not drawn) [Compound 61] | A (90 ≦ A ≦ 100%) | A (90 ≦ A ≦ 100%) | B (80 ≦ B < 90%) | C (60 ≦ C < 80%) | C (60 ≦ C < 80%) | A (90 ≦ A ≦ 100%)
Cc1nn(-c2cc3nc(SCc4cccc(Cl)c4)sc3cc2Cl)c(=O)n1C(F)F [Compound 4] | B (80 ≦ B < 90%) | E (E < 50%) | C (60 ≦ C < 80%) | C (60 ≦ C < 80%) | C (60 ≦ C < 80%) | E (E < 50%)
Cc1nn(-c2cc3nc(SCc4ccco4)sc3cc2F)c(=O)n1C(F)F [Compound 29] | C (60 ≦ C < 80%) | B (80 ≦ B < 90%) | B (80 ≦ B < 90%) | C (60 ≦ C < 80%) | B (80 ≦ B < 90%) | C (60 ≦ C < 80%)
Cc1nn(-c2cc3nc(S(=O)(=O)Cc4cccc(Cl)c4)sc3cc2Cl)c(=O)n1C(F)F [Compound 40] | B (80 ≦ B < 90%) | C (60 ≦ C < 80%) | D (50 ≦ D < 60%) | E (E < 50%) | C (60 ≦ C < 80%) | B (80 ≦ B < 90%)
CCCSc1nc2cc(-n3nc(C(F)(F)F)n(C(F)F)c3=O)c(Br)cc2s1 [Compound 129] | A (90 ≦ A ≦ 100%) | A (90 ≦ A ≦ 100%) | A (90 ≦ A ≦ 100%) | A (90 ≦ A ≦ 100%) | C (60 ≦ C < 80%) | C (60 ≦ C < 80%)
Cc1nn(-c2cc3nc(S(=O)(=O)Cc4ccc(Cl)cc4)sc3cc2Cl)c(=O)n1C(F)F [Compound 41] | C (60 ≦ C < 80%) | B (80 ≦ B < 90%) | D (50 ≦ D < 60%) | D (50 ≦ D < 60%) | C (60 ≦ C < 80%) | C (60 ≦ C < 80%)
Cc1ccc([N+](=O)[O-])c(C[S+]([O-])c2nc3cc(-n4nc(C)n(C(F)F)c4=O)c(F)cc3s2)c1 (stereo not drawn) [Compound 106] | D (50 ≦ D < 60%) | D (50 ≦ D < 60%) | A (90 ≦ A ≦ 100%) | D (50 ≦ D < 60%) | B (80 ≦ B < 90%) | B (80 ≦ B < 90%)
Cc1nn(-c2cc3nc(S(C)(=O)=O)sc3cc2F)c(=O)n1C [Compound 35] | B (80 ≦ B < 90%) | A (90 ≦ A ≦ 100%) | C (60 ≦ C < 80%) | C (60 ≦ C < 80%) | A (90 ≦ A ≦ 100%) | D (50 ≦ D < 60%)
CC[S+]([O-])c1nc2cc(-n3nc(C)n(C(F)F)c3=O)c(Cl)cc2s1 (stereo not drawn) [Compound 115] | B (80 ≦ B < 90%) | B (80 ≦ B < 90%) | D (50 ≦ D < 60%) | C (60 ≦ C < 80%) | B (80 ≦ B < 90%) | A (90 ≦ A ≦ 100%)
Cc1nn(-c2cc3nc(SCc4ccc(F)cc4)sc3cc2F)c(=O)n1C(F)F [Compound 20] | A (90 ≦ A ≦ 100%) | C (60 ≦ C < 80%) | B (80 ≦ B < 90%) | C (60 ≦ C < 80%) | B (80 ≦ B < 90%) | B (80 ≦ B < 90%)
CCOC(=O)C(C)Sc1nc2cc(-n3nc(C)n(C(F)F)c3=O)c(F)cc2s1 (stereo not drawn) [Compound 89] | B (80 ≦ B < 90%) | A (90 ≦ A ≦ 100%) | C (60 ≦ C < 80%) | A (90 ≦ A ≦ 100%) | A (90 ≦ A ≦ 100%) | B (80 ≦ B < 90%)
Cc1nn(-c2cc3nc(SCc4ccccc4Cl)sc3cc2F)c(=O)n1C(F)F [Compound 24] | A (90 ≦ A ≦ 100%) | B (80 ≦ B < 90%) | B (80 ≦ B < 90%) | C (60 ≦ C < 80%) | D (50 ≦ D < 60%) | C (60 ≦ C < 80%)
CCCS(=O)(=O)c1nc2cc(-n3nc(C)n(C(F)F)c3=O)c(F)cc2s1 [Compound 64] | B (80 ≦ B < 90%) | A (90 ≦ A ≦ 100%) | B (80 ≦ B < 90%) | B (80 ≦ B < 90%) | B (80 ≦ B < 90%) | D (50 ≦ D < 60%)
C=CCSc1nc2cc(-n3nc(C)n(C(F)F)c3=O)c(Cl)cc2s1 [Compound 99] | B (80 ≦ B < 90%) | B (80 ≦ B < 90%) | C (60 ≦ C < 80%) | A (90 ≦ A ≦ 100%) | B (80 ≦ B < 90%) | B (80 ≦ B < 90%)
Cc1nn(-c2cc3nc(SCc4ccccc4F)sc3cc2F)c(=O)n1C(F)F [Compound 18] | A (90 ≦ A ≦ 100%) | A (90 ≦ A ≦ 100%) | C (60 ≦ C < 80%) | C (60 ≦ C < 80%) | B (80 ≦ B < 90%) | B (80 ≦ B < 90%)
Cc1nn(-c2cc3nc(SCc4cccc(Cl)c4)sc3cc2F)c(=O)n1C(F)F [Compound 23] | A (90 ≦ A ≦ 100%) | C (60 ≦ C < 80%) | D (50 ≦ D < 60%) | C (60 ≦ C < 80%) | D (50 ≦ D < 60%) | E (E < 50%)

Reference: patent US7666890B2, “Synthesis and herbicidal activity of 1- (2-substituted benzo[d]thiazol-5-yl)-1H-1,2,4-triazol-5(4H)-one derivatives” (Huazhong Normal University, priority 2007, dated 2010)
